SMILES strings stand for the structures. Values joined by “and” are separate entries in the source; they are usually repeats but may differ in a detail not shown here. Equal entries are not always repeated. Inconclusive results and toxic doses are left out.

The test relates to L1210 leukemia ip in BDF1 mice, survival T/C. Nature of the test: NCI In Vivo Anticancer Drug Screen. Data for tumor model L1210 Leukemia (intraperitoneal) in B6D2F1 (BDF1) mice. Conditions: endpoint: mean survival time, higher = longer survival. In short, it runs like this: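 Transplanted-tumor mice were given test agent; controls received vehicle only. Survival readings from the two groups were divided (treated over control).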

[1] abbreviates: dose: 100.0 mg/kg/injection, schedule: Q01DX009 (ip), vehicle: saline with Tween-80.
Setting [2] is: dose: 100.0 mg/kg/injection, schedule: Q04DX003 (ip), vehicle: saline.
The mark [3] stands for this setting: dose: 200.0 mg/kg/injection, schedule: Q01DX009 (ip), vehicle: saline with Tween-80.
The mark [4] stands for this setting: dose: 200.0 mg/kg/injection, schedule: Q04DX003 (ip), vehicle: saline.
[5] abbreviates: dose: 400.0 mg/kg/injection, schedule: Q01DX009 (ip), vehicle: saline with Tween-80.
The mark [6] stands for this setting: dose: 400.0 mg/kg/injection, schedule: Q04DX003 (ip), vehicle: saline.
Where [7] appears, read: dose: 100.0 mg/kg/injection, schedule: Q01DX009 (ip), vehicle: Klucel (hydroxypropylcellulose) (HPC).
The mark [8] stands for this setting: dose: 200.0 mg/kg/injection, schedule: Q01DX009 (ip), vehicle: Klucel (hydroxypropylcellulose) (HPC).
The mark [9] stands for this setting: dose: 400.0 mg/kg/injection, schedule: Q01DX009 (ip), vehicle: Klucel (hydroxypropylcellulose) (HPC).
Setting [10] is: dose: 100.0 mg/kg/injection, schedule: Q04DX003 (ip), vehicle: saline with Tween-80.
[11] abbreviates: dose: 200.0 mg/kg/injection, schedule: Q04DX003 (ip), vehicle: saline with Tween-80.
Where [12] appears, read: dose: 400.0 mg/kg/injection, schedule: Q04DX003 (ip), vehicle: saline with Tween-80.
[13] abbreviates: dose: 100.0 mg/kg/injection, schedule: Q04DX003 (ip), vehicle: Klucel (hydroxypropylcellulose) (HPC).
The mark [14] stands for this setting: dose: 400.0 mg/kg/injection, schedule: Q04DX003 (ip), vehicle: Klucel (hydroxypropylcellulose) (HPC).
[15] abbreviates: dose: 100.0 mg/kg/injection, schedule: Q01DX009 (ip), vehicle: saline.
Where [16] appears, read: dose: 200.0 mg/kg/injection, schedule: Q01DX009 (ip), vehicle: saline.
The mark [17] stands for this setting: dose: 400.0 mg/kg/injection, schedule: Q01DX009 (ip), vehicle: saline.
Setting [18] is: dose: 100.0 mg/kg/injection, schedule: Q04DX002 (ip), vehicle: saline with Tween-80.
[19] abbreviates: dose: 200.0 mg/kg/injection, schedule: Q04DX002 (ip), vehicle: saline with Tween-80.
Where [20] appears, read: dose: 50.0 mg/kg/injection, schedule: Q01DX009 (ip), vehicle: saline.
Setting [21] is: dose: 100.0 mg/kg/injection, schedule: Q01DX001 (ip), vehicle: saline.
[22] abbreviates: dose: 400.0 mg/kg/injection, schedule: Q04DX002 (ip), vehicle: saline with Tween-80.

Regarding `O=C(O)CCc1ccccc1`, the T/C is, setting by setting: (dose: 50.0 mg/kg/injection, schedule: Q04DX003 (ip), vehicle: saline) 98 % of control; under setting [1], 92 % of control; under setting [2], 104 % of control; under setting [3], 95 % of control; under setting [4], 95 % of control; under setting [5], 86 % of control. In addition, under setting [6], the T/C is 98 % of control.

Turning to `O=C1COc2ccc(Cl)cc2N1`, the T/C was 100 % of control under setting [7], 97 % of control under setting [8] and 119 % of control under setting [9].

`Cc1nnnn1-c1ccc([N+](=O)[O-])cc1`: the T/C reads like this: under setting [10], 101 % of control; under setting [11], 101 % of control; under setting [12], 93 % of control.

As to `CSc1ccc(NC(=O)Nc2ccccc2)cc1`, the T/C by setting is: under setting [7], 116 % of control; under setting [13], 95 % of control; under setting [8], 106 % of control; (dose: 200.0 mg/kg/injection, schedule: Q04DX003 (ip), vehicle: Klucel (hydroxypropylcellulose) (HPC)) 93 % of control; under setting [9], 106 % of control; under setting [14], 95 % of control.

As to `CCOC(=O)/C=C/c1c[nH]c(=O)[nH]c1=O`, the T/C is 109 % of control under setting [15]; 103 % of control under setting [2]; 111 % of control under setting [16]; 97 % of control under setting [4]; 105 % of control under setting [17]; 94 % of control under setting [6].

Regarding `COC(OC)(/C(Cl)=C(\Cl)c1ccccc1)c1ccccc1`, the T/C was 94 % of control under setting [18] and 88 % of control under setting [19].

With `COc1cc(NS(C)(=O)=O)ccc1Nc1c2cccc(C)c2nc2c(C)cccc12`, the T/C (dose: 6.25 mg/kg/injection, schedule: Q01DX009 (ip), vehicle: saline) was 117 % of control; the T/C (dose: 6.25 mg/kg/injection, schedule: Q01DX009 (sc), vehicle: Klucel (hydroxypropylcellulose) (HPC)) was 103 % of control; the T/C (dose: 12.5 mg/kg/injection, schedule: Q01DX009 (ip), vehicle: water) is 170 % of control; the T/C (dose: 12.5 mg/kg/injection, schedule: Q01DX009 (sc), vehicle: Klucel (hydroxypropylcellulose) (HPC)) is 104 % of control; the T/C (dose: 25.0 mg/kg/injection, schedule: Q01DX009 (ip), vehicle: saline) was 175 % of control; the T/C (dose: 25.0 mg/kg/injection, schedule: Q01DX009 (ip), vehicle: water) is 201 % of control. Also, the T/C is, setting by setting: (dose: 25.0 mg/kg/injection, schedule: Q01DX009 (sc), vehicle: Klucel (hydroxypropylcellulose) (HPC)) 112 % of control; (dose: 50.0 mg/kg/injection, schedule: Q01DX001 (ip), vehicle: saline) 115 % of control; (dose: 50.0 mg/kg/injection, schedule: Q01DX001 (ip), vehicle: water) 167 % of control; under setting [20], 166 % of control; (dose: 50.0 mg/kg/injection, schedule: Q01DX009 (sc), vehicle: Klucel (hydroxypropylcellulose) (HPC)) 111 % of control; under setting [21], 115 % of control. In addition, the T/C was 213 % of control (dose: 100.0 mg/kg/injection, schedule: Q01DX001 (ip), vehicle: water); 107 % of control (dose: 100.0 mg/kg/injection, schedule: Q01DX009 (ip), vehicle: water); 224 % of control (dose: 200.0 mg/kg/injection, schedule: Q01DX001 (ip), vehicle: water); 102 % of control (dose: 400.0 mg/kg/injection, schedule: Q01DX001 (ip), vehicle: water).

For the molecule `N#CCCOCC[CH2][Sn]([c]1ccccc1)([c]1ccccc1)[c]1ccccc1`, the T/C reads like this: under setting [18], 94 % of control; under setting [19], 94 % of control; under setting [22], 91 % of control.

Regarding `O=C1c2cccc([N+](=O)[O-])c2C(=O)C1c1ccccn1` (configuration not stated), the T/C runs as follows: under setting [10], 101 % of control; under setting [11], 90 % of control; under setting [12], 101 % of control.

`CC(NC(=O)C(C)(C)C)c1ccc2c(c1)OCCO2` (configuration not stated): the T/C is 106 % of control under setting [18], 95 % of control under setting [19] and 95 % of control under setting [22].

With `O=C(Oc1c(Cl)cc([N+](=O)[O-])cc1[N+](=O)[O-])Sc1ccccc1`, the T/C under setting [18] is 103 % of control, the T/C under setting [19] was 100 % of control and the T/C under setting [22] was 100 % of control.

Turning to `C=CCC1(C(=C)C)C(=O)NC(=O)NC1=O`, the T/C (dose: 75.0 mg/kg/injection, schedule: Q01DX001 (ip), vehicle: carboxymethylcellulose (CMC)) is 97 % of control; the T/C (dose: 150.0 mg/kg/injection, schedule: Q01DX001 (ip), vehicle: carboxymethylcellulose (CMC)) is 93 % of control; the T/C (dose: 300.0 mg/kg/injection, schedule: Q01DX001 (ip), vehicle: carboxymethylcellulose (CMC)) was 111 % of control.

`O=C1OCC/C1=C/CCCC/C=C1\CCOC1=O`: the T/C under setting [7] was 93 % of control; the T/C under setting [13] was 94 % of control; the T/C under setting [8] was 98 % of control; the T/C (dose: 266.0 mg/kg/injection, schedule: Q04DX003 (ip), vehicle: Klucel (hydroxypropylcellulose) (HPC)) is 93 % of control; the T/C under setting [14] was 94 % of control.

Regarding `C/C=C/C=C\COC(=O)C1CCCC1`, the T/C reads like this: (dose: 100.0 mg/kg/injection, schedule: Q04DX002 (ip), vehicle: saline) 103 % of control and 107 % of control; (dose: 200.0 mg/kg/injection, schedule: Q04DX002 (ip), vehicle: saline) 96 % of control and 98 % of control; (dose: 400.0 mg/kg/injection, schedule: Q04DX002 (ip), vehicle: saline) 107 % of control; (dose: 600.0 mg/kg/injection, schedule: Q04DX002 (ip), vehicle: saline) 107 % of control.

With `O=C(N/N=C/c1ccc2c(c1)OCO2)c1ccncc1`, the T/C is 102 % of control under setting [1], 94 % of control under setting [3] and 104 % of control under setting [5].

As to `Nc1cccc(/C=C/c2ccc([N+](=O)[O-])cc2)c1`, the T/C (dose: 100.0 mg/kg/injection, schedule: Q01DX001 (ip), vehicle: Klucel (hydroxypropylcellulose) (HPC)) was 91 % of control; the T/C (dose: 200.0 mg/kg/injection, schedule: Q01DX001 (ip), vehicle: Klucel (hydroxypropylcellulose) (HPC)) is 87 % of control; the T/C (dose: 400.0 mg/kg/injection, schedule: Q01DX001 (ip), vehicle: Klucel (hydroxypropylcellulose) (HPC)) is 94 % of control.

For the molecule `N#CC(C#N)=Cc1cccc(OCc2ccccc2)c1`, the T/C is, setting by setting: under setting [7], 100 % of control; under setting [8], 91 % of control; under setting [9], 91 % of control.

For `CC1(C)OC(=O)CC(=O)O1`, the T/C is 94 % of control under setting [1]; 100 % of control under setting [15]; 91 % of control under setting [2]; 94 % of control under setting [3]; 93 % of control under setting [16]; 91 % of control under setting [4]. Moreover, the T/C is 87 % of control under setting [17] and 93 % of control under setting [6].

In the case of `O=C(/C=C/c1ccccc1)N1CCOCC1`, the T/C reads like this: under setting [20], 95 % of control; under setting [21], 97 % of control; under setting [15], 97 % of control; (dose: 200.0 mg/kg/injection, schedule: Q01DX001 (ip), vehicle: saline) 95 % of control.

Turning to `Cc1cc([N+](=O)[O-])c(Nc2ccc(F)cc2)c([N+](=O)[O-])c1`, the T/C under setting [1] is 97 % of control; the T/C under setting [10] was 105 % of control; the T/C under setting [3] was 92 % of control; the T/C under setting [11] was 97 % of control; the T/C under setting [5] was 94 % of control; the T/C under setting [12] was 100 % of control.

Take `CC(C)(C)c1ccc(SC(=O)Nc2cc([N+](=O)[O-])ccc2Cl)cc1`: the T/C (dose: 25.0 mg/kg/injection, schedule: Q01DX009 (ip), vehicle: saline with Tween-80) was 90 % of control; the T/C (dose: 50.0 mg/kg/injection, schedule: Q01DX009 (ip), vehicle: saline with Tween-80) was 101 % of control; the T/C under setting [1] is 100 % of control and 92 % of control.

The values are drawn from PubChem BioAssay AID248 (DTP/NCI, 2004).
